Results: ChEMBL document CHEMBL1201862, “PubChem BioAssay data set” (2004)
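All cell lines were grown in 96-well plates and treated with compound for 48 hours. GI50 marks 50% less growth.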 Activity calls are given as the source filed them. No stated cut-off is given here; in the data, active = GI50 up to about 1.1 µM and inactive = higher.

Tests used:
Assay in all cases: inhibition of tumour cell growth, NCI panel, 48 h
A498 = tested on: A498
Malme-3M = tested on: Malme-3M
MDA-N = tested on: MDA-N
HCC 2998 = tested on: HCC 2998
PC-3 = tested on: PC-3
MCF7 = tested on: MCF7
NCI-H460 = tested on: NCI-H460
786-0 = tested on: 786-0
M14 = tested on: M14
Hs-578T = tested on: Hs-578T
SF-295 = tested on: SF-295
CAKI-1 = tested on: CAKI-1
IGROV-1 = tested on: IGROV-1
HT-29 = tested on: HT-29
TK-10 = tested on: TK-10
HOP-62 = tested on: HOP-62
MDA-MB-435 = tested on: MDA-MB-435
SK-MEL-2 = tested on: SK-MEL-2
A549 = tested on: A549

Measured: GI50

C[Si](C)(C)CCOCN(C(=O)C1=CCC2(CC1)OCCO2)c1ccccc1I
inactive: A498 12.4 µM | Malme-3M 35.7 µM | MDA-N 20.6 µM | HCC 2998 21.1 µM | PC-3 12.6 µM | MCF7 14.2 µM | NCI-H460 20 µM | 786-0 17.7 µM | M14 18.2 µM | Hs-578T 15.8 µM | SF-295 15.5 µM | CAKI-1 24.2 µM | IGROV-1 24.6 µM | HT-29 34.3 µM | TK-10 27.6 µM | HOP-62 20.7 µM | MDA-MB-435 13.9 µM | SK-MEL-2 17.5 µM | A549 23.6 µM

N#Cc1c(-c2ccc(Cl)cc2)c2c([nH]c1=O)-c1cc([N+](=O)[O-])ccc1CCC2
inactive: A498 16.1 µM | Malme-3M 25.7 µM | MDA-N 26.7 µM | HCC 2998 16.9 µM | PC-3 29.4 µM | MCF7 24.9 µM | NCI-H460 14.1 µM | 786-0 25.1 µM | M14 24.1 µM | Hs-578T 25.2 µM | SF-295 11.3 µM | CAKI-1 19.9 µM | IGROV-1 21 µM | HT-29 25.4 µM | TK-10 34.8 µM | HOP-62 20.3 µM | MDA-MB-435 29.9 µM | SK-MEL-2 18 µM | A549 18.8 µM

O=C1CSC2(CCN(CCCN3c4ccccc4Sc4ccc(Cl)cc43)CC2)N1
inactive: A498 15.5 µM | Malme-3M 12 µM | MDA-N 11.5 µM | HCC 2998 3.99 µM | PC-3 5.37 µM | MCF7 5.9 µM | NCI-H460 4.08 µM | 786-0 11.2 µM | M14 6.81 µM | Hs-578T 10.4 µM | SF-295 10.3 µM | CAKI-1 12.5 µM | IGROV-1 7.78 µM | HT-29 3.53 µM | TK-10 9.4 µM | HOP-62 12.9 µM | MDA-MB-435 11.4 µM | SK-MEL-2 16.2 µM | A549 10.1 µM

Cc1cccc(-c2cccc(COCc3cccc(-c4cccc(CO)n4)n3)n2)n1
inactive: A498 > 50 µM | MDA-N > 50 µM | HCC 2998 > 50 µM | PC-3 18.5 µM | MCF7 36.2 µM | NCI-H460 43.8 µM | 786-0 38.5 µM | M14 34.4 µM | Hs-578T 35.7 µM | SF-295 > 5 µM | CAKI-1 34.4 µM | IGROV-1 13 µM | HT-29 40.8 µM | TK-10 32.5 µM | HOP-62 > 50 µM | MDA-MB-435 > 50 µM | SK-MEL-2 > 50 µM | A549 > 50 µM

COc1ccccc1N1C(=O)/C(=C\c2ccccc2)SC1c1cc(OC)c(OC)c(OC)c1 (stereo unspecified)
inactive: A498 55.6 µM | Malme-3M 45.5 µM | MDA-N 17.9 µM | HCC 2998 37.3 µM | PC-3 21.4 µM | MCF7 32.3 µM | 786-0 32.2 µM | M14 35.1 µM | Hs-578T 33.7 µM | SF-295 30.1 µM | CAKI-1 34.2 µM | HT-29 33.3 µM | TK-10 > 100 µM | HOP-62 46.7 µM | MDA-MB-435 17.9 µM | SK-MEL-2 7.06 µM | A549 40.7 µM

CC1=NN(c2nc(N)nc(/C(C#N)=C\c3cccc([N+](=O)[O-])c3)n2)C(C)(C)C1
inactive: A498 > 23 µM | Malme-3M 16.9 µM | MDA-N 13.2 µM | HCC 2998 12.2 µM | PC-3 11.5 µM | MCF7 6.82 µM | NCI-H460 4.31 µM | 786-0 6.58 µM | M14 20 µM | Hs-578T 18.5 µM | SF-295 10.2 µM | CAKI-1 12.4 µM | IGROV-1 5.05 µM | HT-29 11.7 µM | TK-10 15.7 µM | HOP-62 5.13 µM | MDA-MB-435 11.2 µM | SK-MEL-2 16.4 µM | A549 12.3 µM

O=C(COc1ccccc1)N(C(=O)N1CCN(c2ccccc2)CC1)S(=O)(=O)c1ccccc1
inactive: A498 > 100 µM | Malme-3M > 100 µM | MDA-N 62.4 µM | HCC 2998 > 100 µM | PC-3 50.5 µM | MCF7 45.9 µM | NCI-H460 71.9 µM | 786-0 44.2 µM | M14 > 100 µM | Hs-578T > 100 µM | SF-295 > 100 µM | CAKI-1 > 100 µM | HT-29 43.5 µM | TK-10 > 100 µM | HOP-62 72.8 µM | MDA-MB-435 > 100 µM | SK-MEL-2 > 100 µM | A549 > 100 µM

C/C(=N\N=C(\N)SB(F)F)c1ccc2ccccc2c1
inactive: A498 > 100 µM | Malme-3M > 100 µM | MDA-N > 100 µM | HCC 2998 > 100 µM | PC-3 > 100 µM | MCF7 87.7 µM | NCI-H460 > 100 µM | 786-0 > 100 µM | M14 > 100 µM | Hs-578T > 100 µM | SF-295 > 100 µM | CAKI-1 > 100 µM | IGROV-1 > 100 µM | HT-29 > 100 µM | TK-10 > 100 µM | MDA-MB-435 > 100 µM | SK-MEL-2 > 100 µM | A549 > 100 µM

O=C(c1ccc(Cl)cc1)N(C(=S)OC12CC3CC(CC(C3)C1)C2)c1ccccc1
inactive: A498 64.7 µM | Malme-3M 54.3 µM | MDA-N 49.5 µM | HCC 2998 31.6 µM | PC-3 34 µM | MCF7 33.3 µM | NCI-H460 30 µM | 786-0 29.6 µM | M14 34 µM | Hs-578T 39.9 µM | SF-295 36.8 µM | CAKI-1 35.2 µM | HT-29 32.3 µM | TK-10 37.1 µM | HOP-62 45.5 µM | MDA-MB-435 43.8 µM | SK-MEL-2 30.1 µM | A549 31.9 µM

Nc1nccc(NCC2(CO)CCC2)n1
inactive: A498 > 100 µM | Malme-3M > 100 µM | MDA-N > 100 µM | HCC 2998 > 100 µM | PC-3 > 100 µM | MCF7 68.9 µM | NCI-H460 > 100 µM | 786-0 > 100 µM | Hs-578T > 100 µM | SF-295 > 100 µM | CAKI-1 63.4 µM | IGROV-1 > 100 µM | HT-29 > 100 µM | TK-10 36.7 µM | HOP-62 > 100 µM | MDA-MB-435 > 100 µM | SK-MEL-2 > 100 µM | A549 > 100 µM

O=C(/C=C/c1ccc(/C=C/C(=O)c2ccc(O)cc2)cc1)c1ccc(O)cc1
inactive: A498 > 100 µM | MDA-N > 100 µM | HCC 2998 > 100 µM | PC-3 > 100 µM | MCF7 > 100 µM | NCI-H460 > 100 µM | 786-0 74 µM | M14 > 100 µM | Hs-578T > 100 µM | SF-295 > 100 µM | CAKI-1 > 100 µM | IGROV-1 > 10 µM | HT-29 58.1 µM | TK-10 > 100 µM | HOP-62 > 100 µM | MDA-MB-435 > 100 µM | SK-MEL-2 > 100 µM | A549 > 100 µM
